Test results published in ChEMBL document CHEMBL1909511, “Inhalation by design: novel tertiary amine muscarinic M₃ receptor antagonists with slow off-rate binding kinetics for inhaled once-daily treatment of chronic obstructive pulmonary disease” (J Med Chem, 2011).

Columns and labels:
[1] = Half life in iv dosed rat; type: ADME, organism-based; details: in vivo
[2] = Intrinsic clearance in human liver microsomes assessed per mg of protein in presence of NADPH
Canis familiaris [3] = assay: Bronchodilator activity in methacholine challenged Beagle dog assessed as intrinsic duration of action at 10 ug intratracheally administered as single dose in micelle solution; type: functional, Canis lupus familiaris
[4] = target: T1, Muscarinic acetylcholine receptor M2 (Homo sapiens, UniProt P08172); assay: Displacement of [3H]-NMS from human recombinant M2 receptor expressed in CHO cells after 24 hrs by filter binding assay; type: cell-based
T1 sequence (P08172 whole entry): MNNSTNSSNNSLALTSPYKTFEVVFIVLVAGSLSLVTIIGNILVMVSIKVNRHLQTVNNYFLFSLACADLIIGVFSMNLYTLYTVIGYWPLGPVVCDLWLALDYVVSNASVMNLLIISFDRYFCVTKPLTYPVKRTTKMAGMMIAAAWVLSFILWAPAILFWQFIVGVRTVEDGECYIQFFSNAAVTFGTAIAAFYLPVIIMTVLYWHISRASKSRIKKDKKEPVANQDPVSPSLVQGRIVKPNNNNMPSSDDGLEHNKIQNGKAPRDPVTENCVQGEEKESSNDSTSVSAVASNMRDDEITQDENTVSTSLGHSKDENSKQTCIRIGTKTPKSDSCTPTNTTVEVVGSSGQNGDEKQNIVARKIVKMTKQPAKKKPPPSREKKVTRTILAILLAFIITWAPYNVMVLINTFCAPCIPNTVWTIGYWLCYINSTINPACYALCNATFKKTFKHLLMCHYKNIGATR

[5] = Plasma protein binding in iv dosed rat; type: ADME, organism-based; details: read-out: PPB (converted)
Oryctolagus cuniculus = assay: Toxicity in rabbit lung cough model assessed as induction of cough production at 2000 ug administered intratracheally; type: organism-based; details: in vivo, inhaled_or_intranasal
Canis familiaris [6] = assay: Bronchodilator activity in methacholine challenged Beagle dog assessed as intrinsic duration of action at 3 ug intratracheally administered as single dose in micelle solution; type: functional, Canis lupus familiaris
[7] = Intrinsic clearance in human hepatocytes assessed per million cells
[8] = target: T2, Muscarinic acetylcholine receptor M4 (Homo sapiens, UniProt P08173); assay: Displacement of [3H]-NMS from human recombinant M4 receptor expressed in CHO cells after 24 hrs by filter binding assay; type: cell-based
T2 sequence (P08173 whole entry): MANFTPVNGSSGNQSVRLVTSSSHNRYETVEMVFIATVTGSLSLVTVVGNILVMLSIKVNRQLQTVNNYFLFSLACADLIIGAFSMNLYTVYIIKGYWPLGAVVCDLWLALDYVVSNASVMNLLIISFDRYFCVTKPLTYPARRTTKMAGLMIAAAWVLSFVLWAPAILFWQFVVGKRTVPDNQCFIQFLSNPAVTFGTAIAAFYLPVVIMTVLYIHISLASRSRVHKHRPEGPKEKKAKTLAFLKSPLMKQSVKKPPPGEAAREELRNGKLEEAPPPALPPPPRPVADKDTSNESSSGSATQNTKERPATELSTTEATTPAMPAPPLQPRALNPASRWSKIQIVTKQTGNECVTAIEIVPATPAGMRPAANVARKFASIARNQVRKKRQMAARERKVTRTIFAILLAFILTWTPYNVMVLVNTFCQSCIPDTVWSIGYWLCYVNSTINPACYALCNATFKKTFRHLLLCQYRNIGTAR

[9] = target: Muscarinic acetylcholine receptor M3 (Cavia porcellus) (UniProt Q8VH26); assay: Antagonist activity at M3 receptor in Dunkin-Hartley guinea pig tracheal strips assessed as time taken for electrically field-stimulated contractile response to recover by 25 percent of inhibition at Emax after 2 hrs; type: functional
Chain of Muscarinic acetylcholine receptor M3 (Cavia porcellus) (Q8VH26 1-587): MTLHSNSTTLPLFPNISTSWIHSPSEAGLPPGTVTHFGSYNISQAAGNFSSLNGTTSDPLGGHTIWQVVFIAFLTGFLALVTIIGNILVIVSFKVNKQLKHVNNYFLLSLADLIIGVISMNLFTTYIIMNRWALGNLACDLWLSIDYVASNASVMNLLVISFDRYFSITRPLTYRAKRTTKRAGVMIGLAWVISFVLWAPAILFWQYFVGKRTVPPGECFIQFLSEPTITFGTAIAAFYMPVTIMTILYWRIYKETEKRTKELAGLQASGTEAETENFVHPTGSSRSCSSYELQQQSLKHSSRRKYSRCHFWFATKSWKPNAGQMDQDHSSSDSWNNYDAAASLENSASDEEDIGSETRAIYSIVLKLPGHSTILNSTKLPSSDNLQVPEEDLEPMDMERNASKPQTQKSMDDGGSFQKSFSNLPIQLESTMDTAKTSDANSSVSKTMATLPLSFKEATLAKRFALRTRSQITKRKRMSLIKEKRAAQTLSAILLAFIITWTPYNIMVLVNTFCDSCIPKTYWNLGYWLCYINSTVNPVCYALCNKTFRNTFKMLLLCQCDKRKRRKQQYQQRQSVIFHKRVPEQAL

[10] = target: T3, Muscarinic acetylcholine receptor M3 (Homo sapiens, UniProt P20309)
T3 sequence (P20309 whole entry, looked up): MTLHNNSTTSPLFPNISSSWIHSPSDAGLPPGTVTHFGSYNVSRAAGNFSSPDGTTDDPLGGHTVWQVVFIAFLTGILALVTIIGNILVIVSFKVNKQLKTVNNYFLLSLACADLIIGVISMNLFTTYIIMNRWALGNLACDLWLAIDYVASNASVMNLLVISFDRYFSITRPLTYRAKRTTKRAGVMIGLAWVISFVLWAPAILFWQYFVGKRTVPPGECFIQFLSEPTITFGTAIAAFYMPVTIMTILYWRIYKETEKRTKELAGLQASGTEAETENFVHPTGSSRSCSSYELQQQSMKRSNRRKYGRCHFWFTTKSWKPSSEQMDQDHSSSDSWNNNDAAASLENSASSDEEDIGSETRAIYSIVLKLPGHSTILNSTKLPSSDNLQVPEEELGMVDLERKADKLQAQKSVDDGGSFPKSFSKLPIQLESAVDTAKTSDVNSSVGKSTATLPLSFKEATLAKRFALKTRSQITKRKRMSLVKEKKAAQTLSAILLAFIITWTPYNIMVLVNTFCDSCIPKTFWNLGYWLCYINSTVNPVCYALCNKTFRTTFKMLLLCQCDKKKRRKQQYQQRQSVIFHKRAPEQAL

[11] = target: T4, Muscarinic acetylcholine receptor M1 (Homo sapiens, UniProt P11229); assay: Displacement of [3H]-NMS from human recombinant M1 receptor expressed in CHO cells after 24 hrs by filter binding assay; type: cell-based
T4 sequence (P11229 whole entry): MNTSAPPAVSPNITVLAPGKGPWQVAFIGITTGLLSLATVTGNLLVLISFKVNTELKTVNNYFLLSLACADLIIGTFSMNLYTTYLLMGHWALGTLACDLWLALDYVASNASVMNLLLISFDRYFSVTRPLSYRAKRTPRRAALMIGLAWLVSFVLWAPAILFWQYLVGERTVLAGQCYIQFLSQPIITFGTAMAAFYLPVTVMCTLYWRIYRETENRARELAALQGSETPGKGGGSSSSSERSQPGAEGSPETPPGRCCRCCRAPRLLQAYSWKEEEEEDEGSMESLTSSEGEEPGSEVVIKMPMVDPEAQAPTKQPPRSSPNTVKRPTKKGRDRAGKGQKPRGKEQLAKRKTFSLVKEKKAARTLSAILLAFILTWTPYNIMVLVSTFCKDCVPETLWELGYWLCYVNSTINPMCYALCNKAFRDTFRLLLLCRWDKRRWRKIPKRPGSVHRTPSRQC

[12] = target: T5, Muscarinic acetylcholine receptor M5 (Homo sapiens) (UniProt P08912); assay: Displacement of [3H]-NMS from human recombinant M5 receptor expressed in CHO cells assessed as dissociation half life at 100 fold human M5 receptor binding Ki concentration after 24 hrs by dilution-offset filter binding assay; type: cell-based
T5 sequence (whole entry): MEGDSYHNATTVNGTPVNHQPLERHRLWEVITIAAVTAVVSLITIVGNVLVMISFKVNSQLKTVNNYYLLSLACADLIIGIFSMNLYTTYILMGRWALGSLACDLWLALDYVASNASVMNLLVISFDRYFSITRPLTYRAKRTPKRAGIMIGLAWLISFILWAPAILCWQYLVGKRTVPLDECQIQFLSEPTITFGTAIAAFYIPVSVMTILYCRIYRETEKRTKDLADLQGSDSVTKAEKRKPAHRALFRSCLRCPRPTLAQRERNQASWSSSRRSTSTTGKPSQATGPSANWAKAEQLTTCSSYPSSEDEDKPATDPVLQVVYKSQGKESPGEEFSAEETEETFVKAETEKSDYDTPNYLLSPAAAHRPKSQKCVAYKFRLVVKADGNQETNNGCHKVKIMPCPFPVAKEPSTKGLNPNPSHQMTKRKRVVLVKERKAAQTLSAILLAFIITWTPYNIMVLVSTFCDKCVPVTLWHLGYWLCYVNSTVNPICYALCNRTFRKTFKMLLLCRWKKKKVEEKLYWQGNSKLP

[13] = target: T6, Muscarinic acetylcholine receptor M5 (Homo sapiens, UniProt P08912); assay: Displacement of [3H]-NMS from human recombinant M5 receptor expressed in CHO cells after 24 hrs by filter binding assay; type: cell-based
T6 sequence (P08912 whole entry): T5 sequence (whole entry)

[14] = target: T3, Muscarinic acetylcholine receptor M3; details: CHO
Canis familiaris [15] = assay: Toxicity in methacholine challenged Beagle dog assessed effect on heart rate at 10 ug intratracheally administered as single dose in micelle solution; type: organism-based, Canis lupus familiaris; details: in vivo, inhaled_or_intranasal
[16] = Intrinsic clearance in human liver microsomes assessed per mg of protein by glucuronidation assay in presence of Brijj-58 and UDPGA

Q: Which half-life [1] does the source give for `CC(C)(CCC(C(N)=O)(c1ccccc1)c1ccccc1)N1CC(Oc2cccc(O)c2)C1` [PF-03635659] here?
A: 0.9 h

Q: What about the microsomal CLint [2] of the same compound?
A: > 282 µL/min/mg

Q: What about the Time (Canis familiaris [3]) of the same compound?
A: 32 h

Q: What about the Ki [4] of the same compound?
A: 0.137 nM

Q: And the fraction unbound [5]?
A: 0.065

Q: And the Activity (Oryctolagus cuniculus)?
A: Toxic

Q: And the Time (Canis familiaris [6])?
A: >24 h

Q: What about the hepatocyte CLint [7] of the same compound?
A: 96 µL/min/1e6 cells

Q: What about the Ki [8] of the same compound?
A: 0.115 nM

Q: What about the TIME [9] of the same compound?
A: > 16 h

Q: What about the pKb [10] of the same compound?
A: 9.6

Q: And the Ki [11]?
A: 0.115 nM

Q: What about the T1/2 [12] of the same compound?
A: > 16.7 h

Q: What about the Ki [13] of the same compound?
A: 0.169 nM

Q: What about the T1/2 [14] of the same compound?
A: > 24 h

Q: What about the Activity (Canis familiaris [15]) of the same compound?
A: Non-toxic

Q: What about the microsomal CLint [16] of the same compound?
A: 221 µL/min/mg
